Test results published in the Deep4Chem optical property database.
“And” between values parts separate entries of the source, which are not always exact repeats. Identical values can stand only once. Each block holds one compound with its values, some of them ahead of it.

Assay: solvent given as SMILES
[1] = in O=P(c1ccccc1)(c1ccccc1)c1ccccc1Oc1ccccc1P(=O)(c1ccccc1)c1ccccc1

SMILES: COc1ccc2c(=O)c3c([nH]c2c1)-c1ccccc1NC3(C)C
fluorescence lifetime (in C1CCOC1): 8.25 ns
fluorescence lifetime (in CC#N): 9.16 ns
fluorescence lifetime (in CCCCO): 10.2 ns
fluorescence lifetime (in CCCO): 10.1 ns
fluorescence lifetime (in CCO): 9.74 ns
fluorescence lifetime (in CCOC(C)=O): 8.04 ns
fluorescence lifetime (in CN(C)C=O): 10.5 ns
fluorescence lifetime (in CO): 9.35 ns
fluorescence lifetime (in CS(C)=O): 11.4 ns
fluorescence lifetime (in Cc1ccccc1): 7.24 ns
fluorescence lifetime (in ClC(Cl)(Cl)Cl): 5.08 ns
fluorescence lifetime (in ClCCl): 9.46 ns
fluorescence lifetime (in O): 7.42 ns
fluorescence lifetime (in c1ccccc1): 7.52 ns

SMILES: CN(C)c1ccc(/C=C2\CC/C(=C\c3ccc(C#N)cc3)C2=O)cc1
fluorescence lifetime (in C1CCOC1): 0.18 ns
fluorescence lifetime (in CC#N): 0.17 ns
fluorescence lifetime (in CC(C)=O): 0.23 ns
fluorescence lifetime (in CC(C)O): 0.21 ns
fluorescence lifetime (in CCCCO): 0.22 ns
fluorescence lifetime (in CCCCOC(C)=O): 1.01 ns
fluorescence lifetime (in CCCO): 0.18 ns
fluorescence lifetime (in CCO): 0.14 ns
fluorescence lifetime (in CCOC(=O)c1ccccc1): 1.24 ns
fluorescence lifetime (in CCOC(C)=O): 0.9 ns
fluorescence lifetime (in CCOCC): 0.89 ns
fluorescence lifetime (in CN(C)C=O): 0.18 ns
fluorescence lifetime (in CO): 0.13 ns
fluorescence lifetime (in CS(C)=O): 0.19 ns
fluorescence lifetime (in Cc1ccccc1): 0.56 ns
fluorescence lifetime (in ClC(Cl)(Cl)Cl): 0.17 ns
fluorescence lifetime (in ClC(Cl)Cl): 2.08 ns
fluorescence lifetime (in ClCCl): 1.29 ns
fluorescence lifetime (in Clc1ccccc1Cl): 2.18 ns
fluorescence lifetime (in O=C1CCCC1): 0.31 ns
fluorescence lifetime (in S=C=S): 0.28 ns
fluorescence lifetime (in c1ccccc1): 0.76 ns
fluorescence lifetime (in c1ccncc1): 0.41 ns

SMILES: CN(C)c1ccc(C(=Cc2ccc(C#N)cc2)c2ccc(N(C)C)cc2)cc1
fluorescence lifetime (in C1CCOC1): 7.1 ns

SMILES: COc1ccc(-c2cc(C)nc(-c3ccc(-n4c5ccccc5c5ccccc54)cc3)n2)cc1
fluorescence lifetime (in C1CCOC1): 2.56 ns
fluorescence lifetime (in CN(C)C=O): 5.31 ns
fluorescence lifetime (in Cc1ccccc1): 1.21 ns
fluorescence lifetime (in ClC(Cl)Cl): 2.97 ns

SMILES: c1ccc(-c2cc3cccc[n+]3[b-]3c(-c4cccc5[b-]4[n+]4ccccc4cc5-c4ccccc4)cccc32)cc1
fluorescence lifetime (in C1CCCCC1): 4.5 ns

SMILES: O=c1c2cccc3cccc(c32)c2nc3c4ccccc4c4ccccc4c3n12
fluorescence lifetime (in ClCCl): 5.5 ns

SMILES: COc1ccc2c(c1)c1cc(OC)ccc1n2-c1cccc(-n2c3ccc(OC)cc3c3cc(OC)ccc32)c1C#N
fluorescence lifetime (in Cc1ccccc1): 13 ns
fluorescence lifetime [1]: 12.8 ns

SMILES: Cc1ccccc1C
fluorescence lifetime (in C1CCCCC1): 51 ns

SMILES: Fc1c(-n2c3ccccc3c3ccccc32)c(-c2nnc(-c3ccccc3)o2)c(-n2c3ccccc3c3ccccc32)c(-n2c3ccccc3c3ccccc32)c1-n1c2ccccc2c2ccccc21
fluorescence lifetime (in Cc1ccccc1): 3.2 ns

SMILES: O=C(O)c1ccc2cc3cc(C(=O)O)ccc3cc2c1
fluorescence lifetime (in C1CCOC1): 12.3 ns
fluorescence lifetime (in CN(C)C=O): 12.5 ns

SMILES: CCc1ccc(-n2c3ccccc3c3cc4c(cc32)c2ccccc2n4-c2ccc(CC)cc2)cc1
fluorescence lifetime (in ClC(Cl)Cl): 3.62 ns

SMILES: O=Cc1ccc(C#CC(C#Cc2ccc(C=O)o2)=Cc2ccc(C=C(C#Cc3ccc(C=O)o3)C#Cc3ccc(C=O)o3)s2)o1
fluorescence lifetime (in ClC(Cl)Cl): 0.4 ns

SMILES: C/C=C/c1cc(OC)cc(OC)c1
fluorescence lifetime (in CC#N): 2.9 ns
fluorescence lifetime (in CCCCCC): 1.5 ns

SMILES: CN(C)c1ccc(/C=C/c2nc3c(ccc4ccccc43)s2)cc1
fluorescence lifetime (in C1CCCCC1): 0.1 ns and 0.13 ns
fluorescence lifetime (in CC#N): 0.1 ns and 0.13 ns

SMILES: N#CC(C#N)=C(/C=C/c1ccc(N(c2ccccc2)c2ccccc2)cc1)c1ccc2c3c(cccc13)CC2
fluorescence lifetime (in C1CCOC1): 3.5 ns
fluorescence lifetime (in CC#N): 1.22 ns
fluorescence lifetime (in CC(C)=O): 1.04 ns
fluorescence lifetime (in CCOC(C)=O): 3.01 ns
fluorescence lifetime (in CN(C)C=O): 1.02 ns
fluorescence lifetime (in CO): 2.1 ns
fluorescence lifetime (in Cc1ccccc1): 2.26 ns
fluorescence lifetime (in ClC(Cl)Cl): 6.54 ns

SMILES: CC1(C)C(/C=C/C2=C(Cl)C(=C/C=C3/N(CCCCS(=O)(=O)[O-])c4ccc5ccccc5c4C3(C)C)/CCC2)=[N+](CCCCS(=O)(=O)[O-])c2ccc3ccccc3c21
fluorescence lifetime (in CC(C)=O): 0.43 ns
fluorescence lifetime (in CCO): 0.38 ns
fluorescence lifetime (in CO): 0.25 ns
fluorescence lifetime (in CS(C)=O): 0.5 ns
fluorescence lifetime (in ClC(Cl)Cl): 0.73 ns
fluorescence lifetime (in ClCCl): 0.59 ns
fluorescence lifetime (in O): 0.13 ns

SMILES: CC(C)[Si](C#Cc1ccc(C#C[Si](C(C)C)(C(C)C)C(C)C)c2nc3ccccc3nc12)(C(C)C)C(C)C
fluorescence lifetime (in ClCCl): 0.37 ns

SMILES: CC(C)[Si]1(C(C)C)c2cc(C=C(C#N)C#N)ccc2-c2ccc(N(C)C)cc21
fluorescence lifetime (in C1CCCCC1): 0.3 ns
fluorescence lifetime (in ClCCl): 3.2 ns

SMILES: CCC12C(=C3C(=C4c5ccccc5S(=O)(=O)C41CC)C(F)(F)C(F)(F)C3(F)F)c1ccccc1S2(=O)=O (stereo not given)
fluorescence lifetime (in C1COCCO1): 1.2 ns

SMILES: Cc1ccc2c(nc3c(=O)n(C)c(=O)nc-3n2C)c1C
fluorescence lifetime (in CC#N): 3.9 ns

SMILES: Cc1cc(C(F)(F)F)nc2c1ccc1nc(-c3ccc(Cl)cc3)cn12
fluorescence lifetime (in CC#N): 8.1 ns
fluorescence lifetime (in CCCCOC(C)=O): 6.83 ns
fluorescence lifetime (in CCOC(C)=O): 6.72 ns
fluorescence lifetime (in CO): 7.89 ns
fluorescence lifetime (in c1ccccc1): 6.26 ns

SMILES: Cc1cc(C)c(B(c2ccccc2N(c2ccccc2)c2ccccc2)c2c(C)cc(C)cc2C)c(C)c1
fluorescence lifetime (in Cc1ccccc1): 27 ns

SMILES: Cc1cc(-n2c3ccccc3c3cc4c(cc32)C2c3ccccc3C4c3ccccc32)c(C)cc1-c1nc(-c2ccccc2)nc(-c2ccccc2)n1
fluorescence lifetime [1]: 10.5 ns

SMILES: Cn1c2ccccc2c2c1c1ccccc1n2C
fluorescence lifetime (in CCCO): 9 ns

SMILES: CCN(CC)c1ccc2cc(/C=C/C(=C(C#N)C#N)c3ccc4c(c3)c3ccccc3n4CC)c(=O)oc2c1
fluorescence lifetime (in CC(C)=O): 4.49 ns
fluorescence lifetime (in CCOC(C)=O): 3.49 ns
fluorescence lifetime (in CN(C)C=O): 4.81 ns
fluorescence lifetime (in CS(C)=O): 4.66 ns
fluorescence lifetime (in Cc1ccccc1): 1.15 ns
fluorescence lifetime (in ClCCl): 3.32 ns

SMILES: CCC1(CC)c2cc(B(c3c(C)cc(C)cc3C)c3c(C)cc(C)cc3C)ccc2-c2c1c1c(c3c2C(CC)(CC)c2cc(N(c4ccccc4)c4ccccc4)ccc2-3)C(CC)(CC)c2cc(N(c3ccccc3)c3ccccc3)ccc2-1
fluorescence lifetime (in C1CCOC1): 14.4 ns

SMILES: CC(C)(C)c1ccc(-c2nnc(-c3c(-n4c5ccccc5c5ccccc54)c(-n4c5ccccc5c5ccccc54)c(-n4c5ccccc5c5ccccc54)c(-n4c5ccccc5c5ccccc54)c3-n3c4ccccc4c4ccccc43)o2)cc1
fluorescence lifetime (in Cc1ccccc1): 2.9 ns

SMILES: CC(=O)Nc1ccc2c3cccc4cccc(c5cccc1c52)c43
fluorescence lifetime (in CCOC(C)=O): 3.8 ns
fluorescence lifetime (in CS(C)=O): 4.5 ns

SMILES: c1ccc(-c2nn(-c3ccccc3)c3nc4ccc(N(c5ccccc5)c5cccc6ccccc56)cc4cc23)cc1
fluorescence lifetime (in C1CCCCC1): 11.3 ns
fluorescence lifetime (in C1CCOC1): 15.5 ns
fluorescence lifetime (in CC#N): 16.3 ns
fluorescence lifetime (in CC(C)=O): 19.3 ns
fluorescence lifetime (in CCCCCl): 14.9 ns
fluorescence lifetime (in CCCCOCCCC): 12.9 ns
fluorescence lifetime (in CN(C)C=O): 15.8 ns

SMILES: c1ccc(-c2cc(-c3ccc4ccc5c(-c6ccnc(-c7ccccn7)c6)ccc6ccc3c4c65)ccn2)nc1
fluorescence lifetime (in C1CCOC1): 2 ns
fluorescence lifetime (in CC#N): 2.2 ns
fluorescence lifetime (in CCC#N): 2.2 ns
fluorescence lifetime (in CCCC#N): 2.1 ns
fluorescence lifetime (in CCCCCC): 2.6 ns
fluorescence lifetime (in CCCO): 2.1 ns
fluorescence lifetime (in CCO): 2.1 ns
fluorescence lifetime (in CO): 1.7 ns
fluorescence lifetime (in Cc1ccccc1): 1.8 ns

SMILES: CCCCCCCCCCCCN1C(=O)c2c(c3ccc4cc(-c5ccc(C=O)cc5)c(OC)cc4c3c3c2ccc2cc(-c4ccc(C=O)cc4)c(OC)cc23)C1=O
fluorescence lifetime (in ClCCl): 6.45 ns

SMILES: CC1=CC(C)=[N+]2C1=Cc1c3ccccc3c(C#Cc3cccs3)n1[B-]2(F)F
fluorescence lifetime (in CCCCCC): 4.69 ns
fluorescence lifetime (in CCCCCCCCO): 3.74 ns
fluorescence lifetime (in CCOC(C)=O): 4.07 ns
fluorescence lifetime (in CN(C)C=O): 3.46 ns

SMILES: CCN(CC)c1ccc2cc(C#N)/c(=N\C(=O)c3ccco3)oc2c1
fluorescence lifetime (in ClCCl): 3 ns

SMILES: N#Cc1c(-n2c3ccc(Cl)cc3c3cc(Cl)ccc32)c(C#N)c(-n2c3ccc(Cl)cc3c3cc(Cl)ccc32)c(-n2c3ccc(Cl)cc3c3cc(Cl)ccc32)c1-n1c2ccc(Cl)cc2c2cc(Cl)ccc21
fluorescence lifetime (in Cc1ccccc1): 0.4 ns

SMILES: CC1(C)c2ccccc2N(c2ccccc2)c2ccc(-c3ccc(C(=O)c4ccc(-c5ccc6c(c5)C(C)(C)c5ccccc5N6c5ccccc5)cc4)cc3)cc21
fluorescence lifetime [1]: 1.87 ns

The remaining lines, values ahead:

fluorescence lifetime (in ClCCl): 1.97 ns
SMILES: CCCCOc1ccc(-c2oc3cc4n(c3c2-c2ccc(OCCCC)cc2)[B-](F)(F)[N+]2=Cc3cc5oc(-c6ccc(OCCCC)cc6)c(-c6ccc(OCCCC)cc6)c5n3[B-](F)(F)[N+]2=C4)cc1

fluorescence lifetime (in O): 10.9 ns
SMILES: CCOC(=O)CCCCCn1c2ccccc2c(=O)c2cc(N)ccc21

fluorescence lifetime (in C1CCCCC1): 2.2 ns
SMILES: CC(=O)c1ccc(-c2nc3ccc(N(C)C)cc3s2)cc1

fluorescence lifetime (in ClC(Cl)Cl): 2.68 ns
SMILES: CN(C)c1ccc(C2=Cc3cccc[n+]3[B-](F)(F)O2)cc1

fluorescence lifetime (in C1CCOC1): 15.3 ns
fluorescence lifetime (in CC#N): 8.6 ns
fluorescence lifetime (in CCCCCC): 22.5 ns
SMILES: CC1=N/C(=C\c2cccc(N(C)C)c2)C(=O)N1C

fluorescence lifetime (in ClCCl): 8.9 ns
SMILES: CCCCNc1nc(/C=C/c2ccccc2)[n+]([O-])c2c1CCCC2

fluorescence lifetime (in C1CCOC1): 2.31 ns
SMILES: CCn1c2ccccc2c2cc(-c3cc(-c4ccc5c(c4)c4ccccc4n5CC)nc(S(C)(=O)=O)n3)ccc21

fluorescence lifetime (in CCCO): 7.8 ns
SMILES: CCOC(=O)c1ccc2c(c1)n(C)c1c3ccc(C(=O)OCC)cc3n(C)c21

fluorescence lifetime (in C1CCCCC1): 4.6 ns
SMILES: c1ccc2c(c1)[nH]c1cccnc12

fluorescence lifetime (in ClC(Cl)Cl): 2.1 ns
SMILES: Cc1ccc(C(=O)/N=c2\oc3cccc4c5c(-c6ccccc6)oc6cccc(c(c2-c2ccccc2)c34)c65)cc1

fluorescence lifetime (in ClCCl): 3.1 ns
SMILES: CCN(CC)c1ccc2cc(C#N)/c(=N\C(=O)C(C)C)oc2c1

fluorescence lifetime (in C1CCCCC1): 4.1 ns
fluorescence lifetime (in CC#N): 4.5 ns
fluorescence lifetime (in ClCCl): 5 ns
SMILES: c1ccc2c(-c3ccc4sc5ccccc5c4c3)c3ccccc3cc2c1

fluorescence lifetime (in C1CCOC1): 14.7 ns
fluorescence lifetime (in CC#N): 7.9 ns
fluorescence lifetime (in CCCCCC): 21.2 ns
SMILES: COCCN1C(=O)/C(=C/c2cccc(N(C)C)c2)N=C1C

fluorescence lifetime (in C1CCCCC1): 2.8 ns
fluorescence lifetime (in CC#N): 3.4 ns
fluorescence lifetime (in CCCCCCCCO): 3.69 ns
fluorescence lifetime (in CCCCCCO): 3.68 ns
fluorescence lifetime (in CCCCO): 3.55 ns
fluorescence lifetime (in CCCO): 3.48 ns
fluorescence lifetime (in CCO): 3.15 ns and 2.04 ns and 3.1 ns
fluorescence lifetime (in CCOC(C)=O): 3.1 ns
fluorescence lifetime (in CO): 1.94 ns
fluorescence lifetime (in O): 0.36 ns
fluorescence lifetime (in OCC(O)CO): 3.8 ns
SMILES: CCN(CC)c1ccc2c(C)cc(=O)oc2c1

fluorescence lifetime (in c1cc(-n2c3ccccc3c3ccccc32)cc(-n2c3ccccc3c3ccccc32)c1): 6 ns
SMILES: c1ccc(-c2nc(-c3ccccc3)nc(-c3ccc(-c4ccc(N5c6ccccc6[Si](c6ccccc6)(c6ccccc6)c6ccccc65)cc4)cc3)n2)cc1

fluorescence lifetime (in ClC(Cl)Cl): 6 ns
SMILES: COc1ccc2c(c1)c(C#N)cc1c(OC)c(OC)c3cc(C#N)c4cc(OC)ccc4c3c12
